Values after ≈ are worked out from the molar mass of the structure shown. Read-outs that look alike come from different tables or passages of the source.
Columns and labels:
E. coli HH 33779 = test: MIC in vitro; type: cell-based; conditions: E. coli HH 33779; for MIC: Escherichia coli, HH33779, Table 1, read-out: MIC in vitro
Method: (§1) The compounds of Formula I have exceptional antibacterial activity against both Gram-positive and Gram-negative organisms. Minimum inhibitory concentrations (MIC's) ranged from 0.2 to <200 μg./ml. in in vitro testing.

E. coli SK 12140 = test: MIC in vitro; type: cell-based; conditions: Escherichia coli, E. coli SK 12140
Method: as §1

Proteus morgani 179 = test: MIC in vitro; type: cell-based; conditions: Table 1, read-out: MIC in vitro
Method: as §1

S. aureus HH 127 = test: MIC in vitro; type: cell-based; conditions: Staphylococcus aureus, S. aureus HH 127
Method: as §1

S. aureus SK 23390 = test: MIC in vitro; type: cell-based; conditions: for MIC: Staphylococcus aureus
Method: as §1

S. villaluz = test: MIC in vitro; type: cell-based; conditions: Table 1
Method: as §1

Salmonella ATCC 12176 = test: MIC in vitro; type: cell-based; conditions: for MIC: Salmonella
Method: as §1

Strep. Faecalis HH 34358 = test: MIC in vitro; type: cell-based; conditions: Enterococcus faecalis, Table 1; Strep. Faecalis HH 34358; read-out: MIC in vitro
Method: as §1

shigella HH 117 = test: MIC in vitro; type: cell-based
Method: as §1

Kleb. pneumo. SK 1200 = test: MIC in vitro; type: cell-based, Kleb. pneumoniae; conditions: Klebsiella pneumoniae, read-out: MIC in vitro
Method: as §1

Kleb. pneumo. SK 4200 = test: MIC in vitro; type: cell-based, Kleb. pneumoniae; conditions: for MIC: Klebsiella pneumoniae, read-out: MIC in vitro
Method: as §1

Psuedo. sp. HH 63 = test: MIC in vitro; type: cell-based, Pseudo. aeruginosa; conditions: Pseudomonas aeruginosa; Table 1; Psuedo. sp. HH 63; read-out: MIC in vitro
Method: as §1

[1] = test system: Entero. aerog. ATCC 13048; test: MIC in vitro; type: cell-based, Enterobacter aerogenes; conditions: Klebsiella aerogenes, ATCC13048, Table 1; Entero. aerog. ATCC 13048; read-out: MIC in vitro
Method: as §1

Serra. marc ATCC 13880 = test: MIC in vitro; type: cell-based, Serratia marcescens; conditions: Serra. marc ATCC 13880; for MIC: Serratia marcescens, ATCC13880, Table 1, read-out: MIC in vitro
Method: as §1

Entero. cloacae HH 31254 = test: MIC in vitro; type: cell-based; conditions: Enterobacter cloacae
E. coli 12140 = test: In vivo mouse protection, E. coli 12140; conditions: Table 2, E. coli 12140, read-out: ED50 in vivo
Kleb. pneumo. 4200 = test: In vivo mouse protection, Kleb. pneumo. 4200; conditions: sc, Table 2, Kleb. pneumo. 4200, s.c., read-out: ED50 in vivo
[2] = SK12140, read-out: MIC in vitro, Table 1
[3] = HH127, Table 1, read-out: MIC in vitro
[4] = ATCC12176, Table 1, read-out: MIC in vitro
[5] = HH117, Table 1, shigella HH 117, read-out: MIC in vitro
[6] = HH31254, read-out: MIC in vitro, Table 1
[7] = Escherichia coli, 12140, po, p.o.
[8] = Escherichia coli, 12140, sc, s.c.
[9] = SK23390, Table 1, S. aureus SK 23390, read-out: MIC in vitro
[10] = HH31254, Table 1, read-out: MIC in vitro
[11] = SK12140, Table 1, read-out: MIC in vitro

Row | SMILES | MIC (E. coli HH 33779) [µg/mL] | MIC (E. coli SK 12140; [2]) [µg/mL] | MIC (Proteus morgani 179) [µg/mL] | MIC (S. aureus HH 127; [3]) [µg/mL] | MIC (S. villaluz) [µg/mL] | MIC (Salmonella ATCC 12176; [4]) [µg/mL] | MIC (Strep. Faecalis HH 34358) [µg/mL] | MIC (shigella HH 117; [5]) [µg/mL] | MIC (Kleb. pneumo. SK 1200; Table 1, Kleb. pneumo. SK 1200) [µg/mL] | MIC (Psuedo. sp. HH 63) [µg/mL] | MIC [1] [µg/mL] | MIC (Serra. marc ATCC 13880) [µg/mL] | MIC (Entero. cloacae HH 31254; [6]) [µg/mL] | ED50 (E. coli 12140; [7]) [mg/kg] | ED50 (E. coli 12140; [8]) [mg/kg] | MIC (S. aureus SK 23390; [9]) [µg/mL] | MIC (Kleb. pneumo. SK 4200; Table 1, Kleb. pneumo. SK 4200) [µg/mL] | MIC (Entero. cloacae HH 31254; [10]) [µg/mL] | ED50 (Kleb. pneumo. 4200) [mg/kg] | MIC (E. coli SK 12140; [11]) [µg/mL] | also measured
1 | NS(=O)(=O)CCn1nnnc1SCC1=C(C(=O)O)N2C(=O)C(NC(=O)CSC(F)(F)F)C2SC1 (stereo not shown) [IX, 7-Trifluoromethylthioacetamido-3-[1-(2-sulfamoylethyl)tetrazol-5-ylthiomethyl]-3-cephem-4-carboxylic acid] | 1.6 (≈ 2.84 µM) | 0.8 (≈ 1.42 µM) | 200 (≈ 355 µM) | 0.4 (≈ 0.71 µM) | 6.3 (≈ 11.2 µM) | 0.4 (≈ 0.71 µM) | 12.5 (≈ 22.2 µM) | 0.2 (≈ 0.355 µM) | 0.4 (≈ 0.71 µM) | > 200 | 1.6 (≈ 2.84 µM) | 100 (≈ 177 µM) | 0.8 (≈ 1.42 µM) | 44 | 1.56 | – | – | – | – | – | MIC (S. aureus SK 23390; SK23390, read-out: MIC in vitro): 0.2 µg/mL (≈ 0.355 µM); MIC (Kleb. pneumo. SK 4200): 0.8 µg/mL (≈ 1.42 µM)
2 | O=C(Cc1cccs1)NC1C(=O)N2C(C(=O)O)=C(CSc3nnnn3CCS(=O)(=O)O)CS[C@H]12 (stereo partly shown) [VI, 7-(2-Thienylacetamido)-3-[1-(2-sulfoethyl)tetrazol-5-ylthiomethyl]-3-cephem-4-carboxylic acid] | 12.5 (≈ 22.9 µM) | 3.1 (≈ 5.67 µM) | > 200 | 1.6 (≈ 2.93 µM) | 3.1 (≈ 5.67 µM) | 0.8 (≈ 1.46 µM) | 50 (≈ 91.5 µM) | 3.1 (≈ 5.67 µM) | 0.8 (≈ 1.46 µM) | > 200 | 25 (≈ 45.7 µM) | > 200 | – | – | 4.4 | 0.8 (≈ 1.46 µM) | 1.6 (≈ 2.93 µM) | 6.3 (≈ 11.5 µM) | 1.56 | – | –
3 | O=C(CSC(F)(F)F)NC1C(=O)N2C(C(=O)O)=C(CSc3nnnn3CS(=O)(=O)O)CSC12 (stereo not shown) [VII, 7-Trifluoromethylthioacetamido-3-(1-sulfomethyltetrazol-5-ylthiomethyl)-3-cephem-4-carboxylic acid] | 3.1 (≈ 5.63 µM) | 0.4 (≈ 0.727 µM) | 100 (≈ 182 µM) | 0.8 (≈ 1.45 µM) | – | – | 50 (≈ 90.8 µM) | – | 0.2 (≈ 0.363 µM) | > 200 | – | 200 (≈ 363 µM) | 0.8 (≈ 1.45 µM) | – | 0.86 | 0.8 (≈ 1.45 µM) | 0.4 (≈ 0.727 µM) | 3.1 (≈ 5.63 µM) | 0.24 | 0.8 (≈ 1.45 µM) | MIC in vitro (E. coli HH 33779; Table 1): 1.6 µg/mL (≈ 2.91 µM); MIC in vitro (S. aureus SK 23390; Table 1, S. aureus SK 23390): 0.4 µg/mL (≈ 0.727 µM); MIC (Salmonella ATCC 12176; ATCC12176, read-out: MIC in vitro, Table 1): 0.4 µg/mL (≈ 0.727 µM); MIC in vitro (Salmonella ATCC 12176; Table 1): 0.2 µg/mL (≈ 0.363 µM); MIC (shigella HH 117; Shigella, HH117, read-out: MIC in vitro): 0.8 µg/mL (≈ 1.45 µM); MIC in vitro (Kleb. pneumo. SK 4200; Table 1, Kleb. pneumo. SK 4200): 0.2 µg/mL (≈ 0.363 µM); MIC in vitro (Serra. marc ATCC 13880; Table 1): 100 µg/mL (≈ 182 µM)
4 | N#CCC(=O)NC1C(=O)N2C(C(=O)O)=C(CSc3nnnn3CS(=O)(=O)O)CS[C@H]12 (stereo partly shown) [XII, 7-cyanoacetamido-3-(1-sulfomethyltetrazol-5-ylthiomethyl)-3-cephem-4-carboxylic acid] | 1.6 (≈ 3.36 µM) | – | 200 (≈ 421 µM) | 1.6 (≈ 3.36 µM) | > 200 | 0.4 (≈ 0.841 µM) | 50 (≈ 105 µM) | – | – | > 200 | 3.1 (≈ 6.52 µM) | 50 (≈ 105 µM) | – | – | – | 1.6 (≈ 3.36 µM) | 0.8 (≈ 1.68 µM) | 1.6 (≈ 3.36 µM) | – | 0.8 (≈ 1.68 µM) | MIC (Kleb. pneumo. SK 1200): 0.4 µg/mL (≈ 0.841 µM)
5 | O=C(O)C1=C(CSc2nnnn2CCCCCS(=O)(=O)O)CS[C@@H]2C(NC(=O)[C@H](O)c3ccccc3)C(=O)N12 (stereo partly drawn) [IV, 7-D-Mandelamido-3-[1-(5-sulfopentyl)tetrazol-5-ylthiomethyl]-3-cephem-4-carboxylic acid] | 6.3 (≈ 10.5 µM) | – | 3.1 (≈ 5.18 µM) | – | 12.5 (≈ 20.9 µM) | 3.1 (≈ 5.18 µM) | 50 (≈ 83.5 µM) | 0.8 (≈ 1.34 µM) | 1.6 (≈ 2.67 µM) | > 200 | 6.3 (≈ 10.5 µM) | 100 (≈ 167 µM) | 0.8 (≈ 1.34 µM) | > 50 | 18 | 0.8 (≈ 1.34 µM) | 1.6 (≈ 2.67 µM) | – | 15.7 | 1.6 (≈ 2.67 µM) | MIC (S. aureus HH 127; HH127, read-out: MIC in vitro, Table 1): 3.1 µg/mL (≈ 5.18 µM)
